Our source for the IC50 and Ki values is publication PMC12454493, “Insight on novel sulfamoylphenyl pyrazole derivatives as anticancer carbonic anhydrase inhibitors” (Molecular Diversity, 2024).

The test system of assay [1] is MCF-7 breast cancer cell line. Kind of assay: In vitro cytotoxicity, MTT assay. The following applies: Homo sapiens.
Experimental: In vitro cytotoxic activity:
Firstly, cultures were delivered into sterile area then each vial was supplied with 3 mL of medium or balanced salt solution free from phenol red and serum. Cultures were subjected to incubation foe 2-4 g. After the incubation period, MTT solubilization solution was added to remove the produced formazan crystals. Spectrophotometric measurement of absorbance was carried out at 690 nm for the background which then subtracted from absorbance measured at 570 nm. Five different drug concentrations were used 100, 25, 6.3, 1.6 and 0.4 nM and measured in triplicate.
Cell cycle analysis and Apoptotic assay
was determined using Annexin V-FITC Apoptosis Detection Kit (Bio Vision) according to the manufacturer’s procedures. Briefly, cell lines were cultured and incubated with each of the tested compounds for 48 h. Then, the cells were collected by centrifugation and resuspended in 500 μl of 1X binding buffer. 5 μl of Annexin V-FITC was added and 5 μl of propidium iodide (PI 50 mg/ml, optional.). The cells were incubated at room temperature for
Em = 530 nm) using FITC signal detector and PI staining was analyzed by the phycoerythrin emission signal detector.
Apoptotic assay: cell lines were cultured and incubated with each of the tested compounds for 48 h.
Then, the cells were collected by centrifugation and resuspended in 500 μl of 1X binding buffer. 5 μl of Annexin V-FITC was added and 5 μl of propidium iodide (PI 50 mg/ml, optional.). the cells were incubated at room temperature for 5 min in the dark.
signal detector and PI staining was analyzed by the phycoerythrin emission signal detector.
A further assay concerns the target hCA XII (Homo sapiens, UniProt O43570). To be noted: cited from earlier work.
The target of another assay is hCA IX (Homo sapiens, UniProt Q16790). The following applies: cited from earlier work.

Like-named read-outs stand apart in the source and are kept apart here.

Sequence of hCA XII (O43570 25-354): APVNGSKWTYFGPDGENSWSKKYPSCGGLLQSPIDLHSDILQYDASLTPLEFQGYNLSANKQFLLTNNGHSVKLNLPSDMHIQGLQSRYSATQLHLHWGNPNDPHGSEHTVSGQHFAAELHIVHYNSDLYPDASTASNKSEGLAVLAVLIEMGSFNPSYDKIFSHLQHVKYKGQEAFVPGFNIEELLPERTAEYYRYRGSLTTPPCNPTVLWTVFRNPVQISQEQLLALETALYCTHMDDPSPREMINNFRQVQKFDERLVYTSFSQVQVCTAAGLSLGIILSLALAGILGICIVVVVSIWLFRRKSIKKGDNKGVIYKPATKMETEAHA

As a reminder, the IC50 is the midpoint of a concentration-inhibition curve. For `COc1cccc2c1C(=O)c1c(O)c3c(c(O)c1C2=O)C[C@@](O)(C(=O)CO)C[C@@H]3O[C@H]1C[C@H](N)[C@H](O)[C@H](C)O1` [Doxorubicin, doxorubicin, reference compound], the IC50 was 11.6 ± 0.46 µM in assay [1] (MCF7, read-out: IC50 (µM) ± SD cytotoxic activity, MCF-7, MTT, normal conditions) and 2.72 ± 0.11 µM in assay [1] (MCF7, read-out: IC50 (µM) ± SD cytotoxic activity, MCF-7, MTT, under hypoxia).
In general, Ki refers to a measure of affinity in units of concentration, obtained from inhibition or displacement. On to `COc1ccc(C2CC(C3=CC=CCC3=S)=NN2c2ccc(S(N)(=O)=O)cc2)c(OC)c1OC` (stereo not shown) [IV], for which the figures for the Ki at hCA XII and at hCA IX were 0.009 µM and 0.044 µM, respectively.
